Key:
CYP3A4 = biological target: T1, CYP3A4 (Homo sapiens, UniProt P08684); assay: CYP inhibition assay, human liver microsomes, midazolam 1′hydroxylase; assay type: in vitro ADME; details: pooled human liver microsomes, read-out: CYP IC50 3A4
T1 construct: 0.2 mg/ml pooled human liver microsomes; from tissue; host or cells: pooled human liver microsomes
Procedure: (§1) Inhibition of cytochromes P450 (CYPs) 2C9, 2D6 and 3A4 was assessed using human liver microsomes and CYP-selective substrate metabolism reactions. 50 μl incubations were made up containing (finally) 0.2 mg/ml pooled human liver microsomes, 5 μM substrate (diclofenac for CYP2C9 [4′hydroxylase], dextromethorphan for CYP2D6 [O-demethylase] or midazolam for CYP3A4 [1′hydroxylase]), 0.25 μL DMSO containing test inhibitor and NADPH regenerating system. Test inhibitor concentrations of 50, 16.7, 5.6, 1.9, 0.6 and 0.2 μM were assessed in singlicate. Incubations were prewarmed to 37° C. for 10 minutes before initiation by addition of NADPH regenerating system. Incubations were quenched after 5 minutes (20 minutes for dextromethorphan) by addition of 50 μl cold acetonitrile containing 20 ng/ml 4-OH-diclofenac-13C6, 20 ng/mL dextrorphan-D3 and 20 ng/mL 1-OH-midazolam-D4. Quenched incubates were stored at −20° C. for at least 1 hour before centrifugation (20,000×g, 20 minutes). Supernatants were removed and diluted 1:1 with water prior to analysis using a RapidFire sample injector system and API4000 mass spectrometer. Peak areas for substrate, metabolite and stable-labelled metabolite standard were determined using MS/MS. The peak area ratios between the metabolite generated by the enzymatic reaction and the internal standard were used in subsequent calculations. The percentage of (DMSO) control activity was calculated for each incubate and IC50 values estimated by non-linear regression. Sulfaphenazole, quinidine or ketoconazole were tested in each CYP2C9, CYP2D6 or CYP3A4 inhibition experiment, respectively, to ensure assay sensitivity and reproducibility. (Validated assays for human cytochrome P450 activities, R. L. Walsky and R. S. Obach, Drug Metabolism and Disposition 32: 647-660, 2004. and S. Fowler and H. Zhang, The AAPS Journal, Vol. 10, No. 2, 410-424, 2008.)

[1] = biological target: T2, recombinant human cathepsin E (Homo sapiens, UniProt P14091); assay: Cathepsin E fluorescent substrate kinetic assay; assay type: biochemical; details: pH 4.5, substrate MR121-[…]
T2 construct: purchased R&D Systems
T2 sequence (P14091 54-396): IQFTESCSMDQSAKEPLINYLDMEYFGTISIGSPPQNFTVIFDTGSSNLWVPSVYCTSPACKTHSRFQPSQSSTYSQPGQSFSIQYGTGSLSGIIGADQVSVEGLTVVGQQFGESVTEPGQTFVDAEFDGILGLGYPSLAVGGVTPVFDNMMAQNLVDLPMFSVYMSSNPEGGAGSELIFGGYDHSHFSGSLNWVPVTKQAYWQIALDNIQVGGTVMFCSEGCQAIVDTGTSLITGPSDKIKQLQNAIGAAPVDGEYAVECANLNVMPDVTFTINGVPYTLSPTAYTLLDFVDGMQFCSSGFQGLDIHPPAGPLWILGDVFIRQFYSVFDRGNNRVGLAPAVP
Description: (§2) Cathepsin D and Cathepsin E Fluorescent Substrate Kinetic Assays
(§3) The MR121 fluorescence assays described below are based on the fact that MR121 forms a non-fluorescent ground state complex with tryptophan. In solution this formation occurs at millimolar concentrations of tryptophan. The mechanism can be used to design a generic biochemical assay for proteases. A substrate peptide is labeled at the N-terminus with tryptophan and at the C-terminus with the fluorophore MR121 (for cathepsin D the 10 amino acid peptide […]-MR121 was used; for cathepsin E, MR121-[…] was used). In absence of protease activity, the substrates remain intact and the MR121 fluorescence is reduced by the high local Trp-concentration. If the substrates are cleaved by the enzymes the MR121 fluorescence is recovered.
(§4) The fluorescent substrate cathepsin D and cathepsin E kinetic assays were performed at room temperature in 384-well microtiter plates (black with clear flat bottom, non binding surface plates from Corning) in a final volume of 51 μl. […] The enzymatic reaction was followed in a plate: vision reader (Perkin Elmer) (excitation wavelength: 630 nm; emission: 695 nm) for at least 30 minutes in a kinetic measurement detecting an increase of MR121 fluorescence during the reaction time. […]

[2] = biological target: T3, cathepsin D (from human liver) (Homo sapiens, UniProt P07339); assay: Cathepsin D fluorescent substrate kinetic assay; assay type: biochemical; details: pH 5.5, substrate […]-MR121
T3 construct: cathepsin D (from human liver, Calbiochem); purchased Calbiochem; host or cells: purified from human liver
Description: as §2, §3, §4

CYP2C9 = biological target: T4, CYP2C9 (Homo sapiens, UniProt P11712); assay: CYP inhibition assay, human liver microsomes, diclofenac 4′hydroxylase; assay type: in vitro ADME; details: pooled human liver microsomes, read-out: CYP IC50 2C9
T4 construct: 0.2 mg/ml pooled human liver microsomes; from tissue; host or cells: pooled human liver microsomes
Procedure: as §1

T1 sequence (P08684 whole entry): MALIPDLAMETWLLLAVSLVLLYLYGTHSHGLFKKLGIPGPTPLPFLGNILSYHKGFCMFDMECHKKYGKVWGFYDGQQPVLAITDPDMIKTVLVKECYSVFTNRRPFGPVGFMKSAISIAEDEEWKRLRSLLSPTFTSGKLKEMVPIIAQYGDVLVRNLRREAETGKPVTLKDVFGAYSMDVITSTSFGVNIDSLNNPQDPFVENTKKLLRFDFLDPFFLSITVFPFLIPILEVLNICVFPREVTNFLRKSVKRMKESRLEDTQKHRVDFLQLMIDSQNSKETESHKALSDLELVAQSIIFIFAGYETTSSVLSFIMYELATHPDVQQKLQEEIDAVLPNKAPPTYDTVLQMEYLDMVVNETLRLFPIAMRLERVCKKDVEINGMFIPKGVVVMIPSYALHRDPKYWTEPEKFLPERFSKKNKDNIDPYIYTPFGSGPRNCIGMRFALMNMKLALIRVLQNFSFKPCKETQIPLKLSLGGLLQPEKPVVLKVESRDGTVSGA
T3 sequence (P07339 65-162 limits assumed): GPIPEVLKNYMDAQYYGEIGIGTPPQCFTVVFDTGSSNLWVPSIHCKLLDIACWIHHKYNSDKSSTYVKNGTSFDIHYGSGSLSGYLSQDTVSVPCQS
T3 sequence (P07339 169-412 limits assumed): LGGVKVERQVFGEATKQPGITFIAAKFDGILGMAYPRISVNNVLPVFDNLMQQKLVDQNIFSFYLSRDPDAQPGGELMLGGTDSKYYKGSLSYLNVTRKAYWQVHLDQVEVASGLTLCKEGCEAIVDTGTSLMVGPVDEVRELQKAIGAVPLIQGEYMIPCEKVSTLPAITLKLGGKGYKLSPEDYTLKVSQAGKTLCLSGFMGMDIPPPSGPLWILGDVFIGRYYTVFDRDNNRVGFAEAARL
T4 sequence (P11712 whole entry): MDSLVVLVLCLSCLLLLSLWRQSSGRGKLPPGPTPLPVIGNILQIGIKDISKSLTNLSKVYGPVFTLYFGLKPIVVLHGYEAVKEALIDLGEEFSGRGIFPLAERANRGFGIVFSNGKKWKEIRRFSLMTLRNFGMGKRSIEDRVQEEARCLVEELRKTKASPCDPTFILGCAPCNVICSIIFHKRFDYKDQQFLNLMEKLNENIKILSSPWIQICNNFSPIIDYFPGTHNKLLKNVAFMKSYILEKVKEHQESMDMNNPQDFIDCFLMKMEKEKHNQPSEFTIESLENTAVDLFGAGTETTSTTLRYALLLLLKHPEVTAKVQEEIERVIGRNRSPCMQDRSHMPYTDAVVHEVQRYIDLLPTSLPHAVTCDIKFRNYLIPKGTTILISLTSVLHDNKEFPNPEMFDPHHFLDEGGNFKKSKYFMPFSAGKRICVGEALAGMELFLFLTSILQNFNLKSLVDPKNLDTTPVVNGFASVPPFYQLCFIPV

| Structure (SMILES) | IC50 (CYP3A4) [µM] | IC50 [1] [µM] | IC50 [2] [µM] | IC50 (CYP2C9) [µM] |
| --- | --- | --- | --- | --- |
| CC1(c2cccc(-c3cc(Cl)cc(Cl)c3)c2)COCC(N)=N1 (centres unmarked) [Example 32, 5-(3′,5′-Dichloro-biphenyl-3-yl)-5-methyl-5,6-dihydro-2H-[1,4]oxazin-3-ylamine] | > 50 | 3.8 | 2.8 | 3.7 |
| CC1(c2cc(-c3cncnc3)ccc2F)COCC(N)=N1 (centres unmarked) [Example 36, 5-(2-Fluoro-5-pyrimidin-5-yl-phenyl)-5-methyl-5,6-dihydro-2H-[1,4]oxazin-3-ylamine] | > 50 | 13 | 34 | > 50 |
